According to ChEMBL document CHEMBL3414446, “Neoechinulin B and its analogues as potential entry inhibitors of influenza viruses, targeting viral hemagglutinin” (Eur J Med Chem, 2015):
Active and inactive are the calls of the source. The rule behind the calls is not given here.

Assays:
[1] = Antiviral activity against influenza A virus A/WSN/33 (H1N1) infected in MDCK cells assessed as reduction in cytopathic effect at 100 uM after 48 hrs by plaque assay; assay type: functional, Influenza A virus (A/WSN/1933(H1N1))
[2] = Cytotoxicity against MDCK cells assessed as cell growth after 40 hrs by CellTiter-Glo assay; assay type: cell-based, Canis lupus familiaris; conditions: dog
[3] = Antiviral activity against influenza A virus A/WSN/33 (H1N1) infected in MDCK cells assessed as reduction in cytopathic effect after 48 hrs by plaque assay; assay type: functional, cell-based, Influenza A virus (A/WSN/1933(H1N1))
[4] = Binding affinity to influenza A virus A/WSN/33 (H1N1) Hemagglutinin 1 binding to sialic acid receptor by surface plasmon resonance assay; parameters: species or system Influenza A virus (A/WSN/1933(H1N1))
[5] = test system: Influenza A virus (A/WSN/1933(H1N1)); assay: Inhibition of influenza A virus A/WSN/33 (H1N1) Hemagglutinin 1 binding to sialic acid receptor assessed as response unit at 20 ug/ml by surface plasmon resonance assay
[6] = test system: Influenza A virus (A/WSN/1933(H1N1)); assay: Inhibition of influenza A virus A/WSN/33 (H1N1) Hemagglutinin 1 binding to sialic acid receptor assessed as response unit at 10 ug/ml by surface plasmon resonance assay
[7] = target: Hemagglutinin (Influenza A virus) (UniProt B4URE7); assay: Inhibition of influenza A virus A/WSN/33 (H1N1) Hemagglutinin 1 binding to sialic acid receptor assessed as response unit at 5 ug/ml by surface plasmon resonance assay; conditions: Influenza A virus (A/WSN/1933(H1N1))
[8] = target: Hemagglutinin (Influenza A virus) (UniProt B4URE7); assay: Inhibition of influenza A virus A/WSN/33 (H1N1) Hemagglutinin 1 binding to sialic acid receptor assessed as response unit at 2.5 ug/ml by surface plasmon resonance assay; conditions: Influenza A virus (A/WSN/1933(H1N1))
[9] = target: Hemagglutinin (Influenza A virus) (UniProt B4URE7); assay: Inhibition of influenza A virus A/WSN/33 (H1N1) Hemagglutinin 1 binding to sialic acid receptor assessed as response unit at 1.25 ug/ml by surface plasmon resonance assay; conditions: Influenza A virus (A/WSN/1933(H1N1))
[10] = target: Hemagglutinin (Influenza A virus) (UniProt B4URE7); assay: Inhibition of influenza A virus A/WSN/33 (H1N1) Hemagglutinin 1 binding to sialic acid receptor assessed as response unit at 0.625 ug/ml by surface plasmon resonance assay; conditions: Influenza A virus (A/WSN/1933(H1N1))
Hemagglutinin = Hemagglutinin (Influenza A virus, UniProt B4URE7); assay: Binding affinity to influenza A virus A/WSN/33 (H1N1) Hemagglutinin by surface Plasmon resonance assay; parameters: species or system Influenza A virus (A/WSN/1933(H1N1))
MDCK [11] = assay: (§1) Antiviral activity against influenza A virus A/WSN/33 (H1N1) infected in MDCK cells assessed as inhibition of plaque formation after 3 days at 37 degC; assay type: functional, cell-based; conditions: Influenza A virus (A/WSN/1933(H1N1))
MDCK [12] = assay: Antiviral activity against influenza A virus A/WSN/33 (H1N1) infected in MDCK cells assessed as nucleoprotein level in infected cells at 0 to 2 hrs virus entry step at 100 uM by Time-of-addition experiment; assay type: functional, cell-based; conditions: Influenza A virus (A/WSN/1933(H1N1))
MDCK [13] = assay: Antiviral activity against influenza A virus A/WSN/33 (H1N1) infected in MDCK cells assessed as nucleoprotein level in infected cells at 2 to 8 hrs viral genome replication and translation step at 100 uM by Time-of-addition experiment; assay type: functional, cell-based; conditions: Influenza A virus (A/WSN/1933(H1N1))
MDCK [14] = assay: Antiviral activity against influenza A virus A/WSN/33 (H1N1) infected in MDCK cells assessed as nucleoprotein level in infected cells at […] progeny virion release step at 100 uM by Time-of-addition experiment; assay type: functional, cell-based; conditions: Influenza A virus (A/WSN/1933(H1N1))
[15] = test system: Influenza A virus (A/WSN/1933(H1N1)); assay: Inhibition of influenza A virus A/WSN/33 (H1N1)-induced aggregation of chicken erythrocytes after 30 mins by Hemagglutination inhibition assay; assay type: functional
MDCK [16] = assay: Antiviral activity against influenza A virus A/WSN/33 (H1N1) infected in MDCK cells assessed as inhibition of plaque formation for 1 hr at 4 degC; assay type: functional, cell-based; conditions: Influenza A virus (A/WSN/1933(H1N1))
[17] = target: Hemagglutinin (Influenza A virus) (UniProt B4URE7); assay: Inhibition of influenza A virus A/WSN/33 (H1N1) Hemagglutinin transfected in Human HeLa cells assessed as polykaryon formation at 100 uM after 15 mins by microscopy; assay type: cell-based; conditions: Influenza A virus (A/WSN/1933(H1N1))
[18] = test system: Influenza A virus (A/WSN/1933(H1N1)); assay: Inhibition of influenza A virus A/WSN/33 (H1N1) […] binding to sialic acid receptor by surface Plasmon resonance assay
[19] = as §1; assay type: functional, cell-based, Influenza A virus (A/WSN/1933(H1N1)); conditions: 72 h

Compound | inhibition at 100 µM [1] [%] | CC50 at 40 h [2] [µM] | other results
C[C@@H]1NC(=O)[C@H](Cc2c[nH]c3ccccc23)NC1=O | 2.31 | > 200 | 
C=CC(C)(C)c1[nH]c2ccc(C[C@H](O)C(C)(C)OC)cc2c1/C=C1\NC(=O)[C@H](C)NC1=O | 15.2 | > 200 | 
C=CC(C)(C)c1[nH]c2ccc(C[C@H](OC(C)=O)C(C)(C)O)cc2c1/C=C1\NC(=O)[C@H](C)NC1=O | 2.5 | > 200 | 
C=CC(C)(C)c1[nH]c2ccc(C[C@H](O)C(C)(C)OC)cc2c1/C=c1\[nH]c(=O)c(=C)[nH]c1=O | 5 | > 200 | 
C=CC(C)(C)c1[nH]c2ccc(C[C@H](O)C(C)(C)OC)cc2c1C[C@@H]1NC(=O)[C@H](C)NC1=O | 5.69 | > 200 | 
C=CC(C)(C)c1[nH]c2ccc(C[C@H](OC(C)=O)C(C)(C)O)cc2c1C[C@@H]1NC(=O)[C@H](C)NC1=O | 3.48 | > 200 | 
C=CC(C)(C)c1[nH]c2c(C[C@H](O)C(C)(C)O)cccc2c1/C=C1\NC(=O)[C@H](C)NC1=O | 15.1 | > 200 | 
C=CC(C)(C)c1[nH]c2c(C[C@H](O)C(C)(C)OC)cccc2c1/C=C1\NC(=O)[C@H](C)NC1=O | 15.6 | > 200 | 
C=CC(C)(C)c1[nH]c2ccccc2c1C[C@@H]1NC(=O)[C@H](CO)NC1=O | 13 | > 200 | 
C=CC(C)(C)c1[nH]c2ccccc2c1/C=C1\NC(=O)[C@@](CO)(OC)NC1=O | 14.3 | > 200 | 
C=CC(C)(C)c1[nH]c2ccc(C[C@H](O)C(C)(C)O)cc2c1/C=C1\NC(=O)C(=O)NC1=O | 6.45 | > 200 | 
C=CC(C)(C)c1[nH]c2ccccc2c1C(O)[C@@H]1NC(=O)[C@H](C)NC1=O (stereo not given in full) | 3.38 | > 200 | 
C=CC(C)(C)c1[nH]c2ccccc2c1C(OC)[C@@H]1NC(=O)[C@H](C)NC1=O (stereo not given in full) | 18.3 | > 200 | 
C=CC(C)(C)n1cc(C[C@@H]2NC(=O)[C@H](C)NC2=O)c2ccccc21 | 17.9 | > 200 | 
C=CC(C)(C)c1[nH]c2c(CC=C(C)C)cccc2c1/C=c1\[nH]c(=O)c(=C)[nH]c1=O | 100 | > 200 | IC50 [3]: 51.4 µM
C=CC(C)(C)c1[nH]c2ccccc2c1/C=C1\NC(=O)[C@@](C)(OC)NC1=O | 82.4 | > 200 | IC50 [3]: 68.8 µM
C=CC(C)(C)c1[nH]c2ccccc2c1/C=C1\NC(=O)C(=O)NC1=O | 6.69 | > 200 | 
CC(C)=CCn1cc(C[C@@H]2NC(=O)[C@H](C)NC2=O)c2ccccc21 | 25.4 | > 200 | 
NC12CC3CC(CC(C3)C1)C2 [AMANTADINE] |  | > 200 | 
C=CC(C)(C)c1[nH]c2ccccc2c1/C=C1\NC(=O)[C@H](CO)NC1=O [CRISTATUMIN A] | 20.6 | > 200 | 
COc1cc(/C=C/C(=O)CC(=O)/C=C/c2ccc(O)c(OC)c2)ccc1O [CURCUMIN] |  |  | Kd [4]: 507 µM; Activity [5]: 78.8; Activity [6]: 36.4; Activity [7]: 16.1; Activity [8]: 6.8; Activity [9]: 2.7; Activity [10]: 0.8
C=CC(C)(C)c1[nH]c2c(CC=C(C)C)cc(CC=C(C)C)cc2c1C[C@@H]1NC(=O)[C@H](C)NC1=O [ECHINULIN] | 13 | > 200 | 
C=CC(C)(C)c1[nH]c2ccc(CC=C(C)C)cc2c1/C=C1\NC(=O)[C@H](C)NC1=O [ISOECHINULIN A] | 77.6 | > 200 | IC50 [3]: 42.7 µM
C=CC(C)(C)c1[nH]c2ccccc2c1/C=C1\NC(=O)[C@H](C)NC1=O [NEOECHINULIN A] |  |  | Kd (Hemagglutinin): 98 µM; Activity [7]: 26.5; Activity [8]: 12.3; Activity [9]: 4.5; Activity [10]: 1
C=CC(C)(C)c1[nH]c2ccccc2c1/C=c1\[nH]c(=O)c(=C)[nH]c1=O [NEOECHINULIN B] | 70.5 | > 200 | IC50 [3]: 27.4 µM; inhibition (MDCK [11]): Dose-dependent effect; Activity (MDCK [12]): Active; inhibition (MDCK [13]): inactive; inhibition (MDCK [14]): inactive; inhibition [15]: Dose-dependent effect; inhibition (MDCK [16]): Dose-dependent effect; Activity [17]: inactive; Kd (Hemagglutinin): 32 µM; Kd [4]: 451 µM; Activity [18]: Active; Activity [5]: 66.9; Activity [6]: 27.7; Activity [7]: 8.9; Activity [8]: 0.8; Activity [9]: -4; Activity [10]: -3.9
CCOC(=O)C1=C[C@@H](OC(CC)CC)[C@H](NC(C)=O)[C@@H](N)C1 [OSELTAMIVIR] |  | > 200 | IC50 [3]: 46.5 µM; IC50 [19]: 15 µM
C=CC(C)(C)c1[nH]c2ccccc2c1C[C@@H]1NC(=O)[C@H](C)NC1=O [PREECHINULIN] | 14.9 | > 200 | 
NC(=O)c1ncn([C@@H]2O[C@H](CO)[C@@H](O)[C@H]2O)n1 [RIBAVIRIN] |  | > 200 | 
CCOC(=O)c1c(CSc2ccccc2)n(C)c2cc(Br)c(O)c(CN(C)C)c12 [UMIFENOVIR] |  |  | Kd [4]: 0.081 µM; Activity [5]: 102; Activity [6]: 48.7; Activity [7]: 20.7; Activity [8]: 7.5; Activity [9]: 1.2; Activity [10]: -1.8
